Experimental data reported in US20240116985A1, “STAPLED PEPTIDES AND METHODS THEREOF” (priority 2020, published 2024).
Read-outs that look alike come from different tables or passages of the source.

What was measured:
[1] = target: T1, beta-catenin/TCF4 engagement (Homo sapiens, UniProt P35222); experiment: Nano-BRET target engagement assay (B-cat-Halo & TCF4-Luc in HEK293 cells); type: cell-based; details: read-out: NanoBRET Abs IC50
T1 construct: expressed in transfected cells; host or cells: HEK293
T1 sequence (P35222 1-781): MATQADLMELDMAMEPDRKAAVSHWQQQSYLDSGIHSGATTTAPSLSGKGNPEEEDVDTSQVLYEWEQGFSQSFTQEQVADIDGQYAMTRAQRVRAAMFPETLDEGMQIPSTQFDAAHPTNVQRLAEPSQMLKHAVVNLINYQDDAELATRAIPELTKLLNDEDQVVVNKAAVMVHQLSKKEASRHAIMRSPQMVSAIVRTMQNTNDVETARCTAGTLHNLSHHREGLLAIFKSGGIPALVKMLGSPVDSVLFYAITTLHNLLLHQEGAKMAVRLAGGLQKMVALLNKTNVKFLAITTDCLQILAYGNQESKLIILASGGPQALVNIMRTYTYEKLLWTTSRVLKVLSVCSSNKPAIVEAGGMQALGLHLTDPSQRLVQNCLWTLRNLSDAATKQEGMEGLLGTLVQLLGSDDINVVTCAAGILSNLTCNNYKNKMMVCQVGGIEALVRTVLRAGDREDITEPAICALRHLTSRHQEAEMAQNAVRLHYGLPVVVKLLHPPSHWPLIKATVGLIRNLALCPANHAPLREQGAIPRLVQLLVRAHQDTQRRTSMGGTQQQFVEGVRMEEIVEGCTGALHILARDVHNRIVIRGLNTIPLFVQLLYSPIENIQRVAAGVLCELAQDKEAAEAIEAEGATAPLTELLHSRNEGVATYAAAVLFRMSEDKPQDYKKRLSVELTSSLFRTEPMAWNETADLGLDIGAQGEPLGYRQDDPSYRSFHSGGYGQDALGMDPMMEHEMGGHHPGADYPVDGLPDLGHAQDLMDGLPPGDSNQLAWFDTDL

[2] = target: T2, full-length beta-Catenin (Uniprot ID P35222) (Homo sapiens, UniProt P35222); experiment: Fluorescence polarization IC50 (beta-catenin / 5FAM-TCF4 10-53 competition); type: binding; details: fluorescence polarization
T2 construct: 10 nM full-length beta-Catenin (Uniprot ID P35222)
T2 sequence (P35222 1-781): T1 sequence (P35222 1-781)

Structure (SMILES) | IC50 ([1]; absolute IC50) [nM] | IC50 ([2]; read-out: beta-Catenin FP IC50) [nM] | further results
CC(=O)N1CCC[C@]12CC=CCCCC1(CCCC=CCCCOC(=O)N3CC[C@@](C(=O)N[C@@H](Cc4ccccc4C(F)(F)F)C(=O)N[C@@H](Cc4csc5c(Cl)cccc45)C(=O)N[C@@H](CCC(N)=O)C(N)=O)(C3)NC(=O)[C@H](CC(C)C)NC(=O)[C@H](Cc3ccccc3)NC(=O)[C@H](C)NC(=O)[C@H](C)NC(=O)[C@H](Cc3cccc(C(=O)O)c3)NC(=O)[C@H](CC(=O)O)NC1=O)NC(=O)[C@H](CC(C)(C)C)NC(=O)[C@H](CC(=O)O)NC2=O (stereo partly drawn) [I-2486, Ac-PL3-Asp-Npg-B5-Asp-3COOHF-Ala-Ala-Phe-Leu-PyrS2-2F3MeF-7C1BztA-Gln-NH2] | 3700 | 34 | –
CC(=O)N1CCC[C@]12CC=CCCCC1(CCCC=CCCCOC(=O)N3CC[C@@](C(=O)N[C@@H](Cc4ccsc4)C(=O)N[C@@H](Cc4csc5ccccc45)C(=O)N[C@@H](CCC(N)=O)C(N)=O)(C3)NC(=O)[C@H](CC(N)=O)NC(=O)[C@H](Cc3ccccc3)NC(=O)[C@H](C)NC(=O)C3(CC3)NC(=O)[C@H]([C@@H](C)O)NC(=O)[C@H](CC(N)=O)NC1=O)NC(=O)[C@H](CC(C)(C)C)NC(=O)[C@H](CC(=O)O)NC2=O (stereo partly drawn) [I-2492, Ac-PL3-Asp-Npg-B5-Asn-Thr-Cpg-Ala-Phe-Asn-PyrS2-3Thi-BztA-Gln-NH2] | > 20000 | – | –
CCN(CC)C(=O)[C@H](CCC(N)=O)NC(=O)[C@H](Cc1csc2ccccc12)NC(=O)[C@H](Cc1ccsc1)NC(=O)[C@]12CCN(C1)C(=O)OCCCC=CCCCC1(CCCC=CC[C@]3(CCCN3C(C)=O)C(=O)N[C@@H](CC(=O)O)C(=O)N[C@@H](CC(C)(C)C)C(=O)N1)C(=O)N[C@@H](CC(=O)O)C(=O)N[C@@H](CN(CC(=O)O)CC(F)(F)F)C(=O)N[C@@H](C)C(=O)N[C@@H](C)C(=O)N[C@@H](Cc1ccccc1)C(=O)N[C@@H](CC(N)=O)C(=O)N2 (stereo partly drawn) [I-1641, Ac-PL3-Asp-Npg-B5-Asp-TfeGA-Ala-Ala-Phe-Asn-PyrS2-3Thi-BztA-Gln-NEt2] | 14700 | – | –
CC(=O)N1CCC[C@]12CC=CCCCC1(CCCC=CCCCCCC[C@@](C)(C(=O)N[C@@H](Cc3ccccc3)C(=O)N[C@@H](Cc3csc4ccccc34)C(=O)N[C@@H](CCC(N)=O)C(N)=O)NC(=O)[C@H](CCO)NC(=O)[C@H](Cc3ccccc3)NC(=O)[C@H](C)NC(=O)[C@H](C)NC(=O)[C@H](CCC(=O)O)NC(=O)[C@H](CC(=O)O)NC1=O)NC(=O)[C@H](CO)NC(=O)[C@H](CC(=O)O)NC2=O (stereo partly drawn) [I-1529, Ac-PL3-Asp-Ser-B5-Asp-Glu-Ala-Ala-Phe-Hse-S8-Phe-BztA-Gln-NH2] | > 20000 | – | –
CC(=O)N1CC2CC1C(=O)N[C@@H](CC(=O)O)C(=O)N[C@@H](CC(C)(C)C)C(=O)NC1(CCCCCCCCOC(=O)N3CC[C@@](C(=O)N[C@@H](Cc4ccsc4)C(=O)N[C@@H](Cc4csc5ccccc45)C(=O)N[C@@H](CCC(N)=O)C(N)=O)(C3)NC(=O)[C@H](CC(C)C)NC(=O)[C@H](Cc3ccccc3)NC(=O)[C@H](C)NC(=O)[C@H](C)NC(=O)[C@H](CN(CC(=O)O)CC(F)(F)F)NC(=O)[C@H](CC(=O)O)NC1=O)CCCCCCOc1cccc(c1)CC(=O)O2 (stereo partly drawn) [I-2406, Ac-HypPAc3OAllyl-Asp-Npg-B5-Asp-TfeGA-Ala-Ala-Phe-Leu-PyrS2-3Thi-BztA-Gln-NH2] | – | – | IC50 ([2]; beta-Catenin FP IC50 (nM)): 242 nM
CC(=O)N1CCC[C@]12CC=CCCCC1(CCCC=CCCCOC(=O)N3CC[C@@](C(=O)N[C@@H](Cc4ccccc4)C(=O)N[C@@H](Cc4csc5ccccc45)C(=O)N[C@@H](C)C(N)=O)(C3)NC(=O)[C@H](CC(C)C)NC(=O)[C@H](Cc3ccccc3)NC(=O)[C@H](C)NC(=O)[C@H](CCCCNC(C)C)NC(=O)[C@H](CCC(N)=O)NC(=O)[C@H](CC(=O)O)NC1=O)NC(=O)[C@H](CC1CCCCC1)NC(=O)[C@H](CC(N)=O)NC2=O (stereo partly drawn) [I-2352, Ac-PL3-Asn-Cha-B5-Asp-Gln-iPrLys-Ala-Phe-Leu-PyrS2-Phe-BztA-Ala-NH2] | – | 211 | –
CC(=O)N1CCC[C@]12CC=CCCCC1(CCCC=CCCCOC(=O)N3CC[C@@](C(=O)N[C@@H](Cc4ccsc4)C(=O)N[C@@H](Cc4csc5ccccc45)C(=O)N[C@@H](CCC(N)=O)C(N)=O)(C3)NC(=O)[C@H](CC(N)=O)NC(=O)[C@H](Cc3ccccc3)NC(=O)[C@H](C)NC(=O)[C@H](C)NC(=O)[C@H]([C@@H](C)O)NC(=O)[C@H](CC(N)=O)NC1=O)NC(=O)[C@H](CC(C)(C)C)NC(=O)[C@H](Cc1cccc(C(=O)O)c1)NC2=O (stereo partly drawn) [I-2135, Ac-PL3-3COOHF-Npg-B5-Asn-Thr-Ala-Ala-Phe-Asn-PyrS2-3Thi-BztA-Gln-NH2] | – | 3410 | –
CC(=O)N1CCC[C@]12CC=CCCCC1(CCCC=CCCCOC(=O)N3CC[C@@](C(=O)N[C@@H](Cc4ccsc4)C(=O)N[C@@H](Cc4csc5ccccc45)C(=O)N[C@@H](CCC(N)=O)C(N)=O)(C3)NC(=O)[C@H](CCO)NC(=O)[C@H](Cc3cccc(C(=O)O)c3)NC(=O)[C@H](C)NC(=O)[C@H](C)NC(=O)[C@H](Cc3ccc(O)cc3)NC(=O)[C@H](CC(=O)O)NC1=O)NC(=O)[C@H](CC(C)(C)C)NC(=O)[C@H](CC(=O)O)NC2=O (stereo partly drawn) [I-2124, Ac-PL3-Asp-Npg-B5-Asp-Tyr-Ala-Ala-3COOHF-Hse-PyrS2-3Thi-BztA-Gln-NH2] | – | 29 | –
CC(=O)N1CCC[C@]12CC=CCCCC1(CCCC=CCCCOC(=O)N3CC[C@@](C(=O)N[C@@H](Cc4ccsc4)C(=O)N[C@@H](Cc4csc5ccccc45)C(=O)N[C@@H](CCC(N)=O)C(N)=O)(C3)NC(=O)[C@H](CC(C)C)NC(=O)[C@H](Cc3ccccc3)NC(=O)[C@H](C)NC(=O)[C@H](C)NC(=O)[C@H](CC(=O)O)NC(=O)[C@H](CC(=O)S)NC1=O)NC(=O)[C@H](CC(C)(C)C)NC(=O)[C@H](CC(=O)O)NC2=O (stereo partly drawn) [I-1944, Ac-PL3-Asp-Npg-B5-AspSH-Asp-Ala-Ala-Phe-Leu-PyrS2-3Thi-BztA-Gln-NH2] | – | 1630 | –

The remaining molecules from weak to strong by IC50 ([2]; read-out: beta-Catenin FP IC50), led by results:

IC50 ([1]; absolute IC50) [nM] | IC50 ([2]; read-out: beta-Catenin FP IC50) [nM] | Structure (SMILES) | further results
– | 5000 | CNC(=O)C[C@@H]1NC(=O)C2(CCCC=CCCCCCC[C@@](C)(C(=O)N[C@@H](Cc3ccccc3)C(=O)N[C@@H](Cc3csc4ccccc34)C(=O)N[C@@H](CCC(N)=O)C(N)=O)NC(=O)[C@H](C(C)C)NC(=O)[C@H](Cc3ccccc3)NC(=O)[C@H](C)NC(=O)[C@H](C)NC(=O)[C@H](CC(=O)O)NC1=O)CCCC=CC[C@]1(CCCN1C(C)=O)C(=O)N[C@@H](CC(=O)O)C(=O)N[C@@H](C)C(=O)N2 (stereo partly drawn) [I-540, Ac-PL3-Asp-Ala-B5-[NHMe]AsnR-Asp-Ala-Ala-Phe-Val-S8-Phe-BztA-Gln-NH2] | –
50000 | 397 | CC(=O)N1CCC[C@]12CC=CCCCC1(CCCC=CCCCOC(=O)N3CC[C@@](C(=O)N[C@@H](Cc4ccsc4)C(=O)N[C@@H](Cc4csc5ccccc45)C(=O)N[C@@H](CCC(N)=O)C(N)=O)(C3)NC(=O)[C@H]([C@@H](C)O)NC(=O)[C@H](Cc3ccccc3)NC(=O)[C@H](C)NC(=O)C(C)(C)NC(=O)[C@H]([C@@H](C)O)NC(=O)[C@H](CC(N)=O)NC1=O)NC(=O)[C@H](CC(C)(C)C)NC(=O)[C@H](CC(=O)O)NC2=O (stereo partly drawn) [I-2409, Ac-PL3-Asp-Npg-B5-Asn-Thr-Aib-Ala-Phe-Thr-PyrS2-3Thi-BztA-Gln-NH2] | –
– | 329 | CC(=O)N1CCC[C@]12CCCCCCC1(CCCCCCCCOC(=O)N3CC[C@@](C(=O)N[C@@H](Cc4ccsc4)C(=O)N[C@@H](Cc4csc5ccccc45)C(=O)N[C@@H](Cc4ccccc4)C(N)=O)(C3)NC(=O)[C@H]([C@@H](C)O)NC(=O)[C@H](Cc3ccccc3)NC(=O)[C@H](C)NC(=O)[C@H](C)NC(=O)[C@H](CN(CC(=O)O)CC(F)(F)F)NC(=O)[C@H](CC(=O)O)NC1=O)NC(=O)[C@H](CC(C)(C)C)NC(=O)[C@H](CC(=O)O)NC2=O (stereo partly drawn) [I-1756, Ac-PL3-Asp-Npg-B5-Asp-TfeGA-Ala-Ala-Phe-Thr-PyrS2-3Thi-BztA-Phe-NH2] | –
– | 239 | CC(=O)N1CCC[C@]12CC=CCCCC1(CCCC=CCCCOC(=O)N3CC[C@@](C(=O)N[C@@H](Cc4ccsc4)C(=O)N[C@@H](Cc4cccc(F)c4F)C(=O)N[C@@H](CCC(N)=O)C(N)=O)(C3)NC(=O)[C@H](CC(C)C)NC(=O)[C@H](Cc3ccccc3)NC(=O)[C@H](C)NC(=O)[C@H](C)NC(=O)[C@H](CC(=O)O)NC(=O)[C@H](CC(=O)O)NC1=O)NC(=O)[C@H](CC(C)(C)C)NC(=O)[C@H](CC(=O)O)NC2=O (stereo partly drawn) [I-1425, Ac-PL3-Asp-Npg-B5-Asp-Asp-Ala-Ala-Phe-Leu-PyrS2-3Thi-23FF-Gln-NH2] | –
– | 67 | CC(=O)N1CCC[C@H]1C(=O)N[C@]1(C)CCCCCCC2(CCCCCCCCOC(=O)N3CC[C@@](C(=O)N[C@@H](Cc4ccccc4C(F)(F)F)C(=O)N[C@@H](Cc4csc5ccccc45)C(=O)N[C@@H](CCC(N)=O)C(N)=O)(C3)NC(=O)[C@H](CC(C)C)NC(=O)[C@H](Cc3ccccc3)NC(=O)[C@H](C)NC(=O)[C@H](C)NC(=O)[C@H](Cc3cccc(C(=O)O)c3)NC(=O)[C@H](CC(=O)O)NC2=O)NC(=O)[C@H](CC(C)(C)C)NC(=O)[C@H](CC(=O)O)NC1=O (stereo partly drawn) [I-2572, Ac-Pro-R3-Asp-Npg-B5-Asp-3COOHF-Ala-Ala-Phe-Leu-PyrS2-2F3MeF-BztA-Gln-NH2] | IC50 [1]: > 20000 nM
